Data published in patent US7405211B2, “Therapeutic morpholino-substituted compounds” (AstraZeneca AB, priority 2000, dated 2008).

Columns and labels:
Format in all cases: biochemical
PI3K γ = biological target: T1, PI3K γ (Homo sapiens, UniProt P48736); test: In vitro enzyme assay PI3K γ (recombinant); details: recombinant γ isoform
T1 construct: made in house
Description: (§1) In vitro enzyme assays were conducted as a primary screen to determine drug candidate isoform affinity and specificity.
(§2) The α and β isoforms of the PI3K were immunoprecipitated from a platelet lysate using an antibody that recognised the p85 regulatory subunit common to both forms of the enzyme. The γ isoform was produced as a recombinant protein in the Thrombogenix laboratories. […] Standard phosphorylation assays using phosphatidylinositol and ^32P were used to measure the enzyme activity in the immunoprecipates in the presence or absence of an inhibitor. Enzyme activity was determined over a range of inhibitor concentrations to establish an IC50 value.

PI3K α/β isoforms = test: In vitro enzyme assay PI3K α/β; details: immunoprecipitated from platelet lysate
Description: as §1, §2

[1] = test system: PI 3-kinase immunoprecipitated from human platelets; test: In vitro PI 3-kinase assay (32P incorporation into PI); details: PI 3-kinase from human platelets, PI substrate
Description: The effect of TGX-25, TGX-33, TGX-37, TGX-40, TGX-41, TGX-57, TGX-84, TGX-90, TGX-93, TGX-98, TGX-99, TGX-101, TGX-106, TGX-107, TGX-108, TGX-109, TGX-111, TGX-112, TGX-113, TGX-115, TGX-120, TGX-121, TGX-123, TGX-124, TGX-126, TGX-127, TGX-130 or TGX-131on PI 3-kinase activity was determined using an in vitro PI 3-kinase assay. This assay was performed using PI 3-kinase immunoprecipitated from human platelets as the enzyme and PI as the substrate. The PI 3-kinase activity was quantitated by measuring the enzymatic incorporation of [^32P] into PI, forming PI([^32P]-3)P, as previously described (Susa et al., 1992, The Journal of Biological Chemistry 267(32):22951-22956.
Washed human platelets were lysed in Triton X-100 lysis buffer (10 mM Tris, pH 7.4, 1% Triton X-100, 2 mM EDTA, 1 mM PMSF) for 30 minutes. The Triton X-100 insoluble fraction was removed by centrifugation of the cell lysates at 15,000 g for 10 minutes. PI 3-kinase was immunoprecipitated by mixing 500 μg of the cell lysate with 1 μg of a rabbit anti-rat antibody against the p85/110 form of PI 3-kinase and 30 μl of 50% Protein A-sepharose beads for 2 hours at 4° C. The Protein A-sepharose-bound PI 3-kinase was isolated by pelleting the beads at 15,000 g for 5 seconds, and washing three times with ice-old Triton X-100 lysis buffer followed by four washes with PI 3-kinase assay buffer (20 mM HEPES, pH 7.4, 1 mM EGTA, 5 mM MgCl2).
PI stored in CHCl3 was dried under N2, resuspended in the lipid buffer (50 mM HEPES, pH 7.2, 1 mM EDTA) at a final concentration of 330 μg/ml, and sonicated for 6 minutes on ice. PI([^32P]-3)P was generated by mixing the immunoprecipitated PI 3-kinase for 20 minutes with 40 μl of the PI, 10 μl of ATP (1 mM) and ^32P-r-ATP (0.5 μCi, 1 μCi/nmol), 10 μl of 10× kinase buffer, in a final assay volume of 100 μl adjusted with H2O. TGX-25, TGX-33, TGX-37, TGX-40, TGX-41, TGX-57, TGX-84, TGX-90, TGX-93, TGX-98, TGX-99, TGX-101, TGX-106, TGX-107, TGX-108, TGX-109, TGX-111, TGX-112, TGX-113, TGX-115, TGX-120, TGX-121, TGX-123, TGX-124, TGX-126, TGX-127, TGX-130 or TGX-131 was preincubated with the PI 3-kinase for 5 minutes prior to the addition of ATP. The assay was terminated with 100 μl of 1 N HCl, and the PI([^32P]-3)P product extracted with 200 μl chloroform:methanol (1:1) and 500 μl 2 M KCl. The PI([^32P]-3)P in the chloroform phase was resolved by thin layer chromatography using a solvent system containing CHCl3:MeOH:HAC:H2O (43:38:5:7) (v:v:v:v), and visualized by autoradiography. The PI([^32P]-3)P spots were then scraped off from the TLC plates, deacylated with 1 ml methylamine:butanol:methanol (42:9:47) (v:v:v) for 4 hours at 53° C., and quantitated using a liquid scintillation counter (LKB 1209 RackBETA).

T1 sequence (P48736 whole entry, species assumed, canonical isoform): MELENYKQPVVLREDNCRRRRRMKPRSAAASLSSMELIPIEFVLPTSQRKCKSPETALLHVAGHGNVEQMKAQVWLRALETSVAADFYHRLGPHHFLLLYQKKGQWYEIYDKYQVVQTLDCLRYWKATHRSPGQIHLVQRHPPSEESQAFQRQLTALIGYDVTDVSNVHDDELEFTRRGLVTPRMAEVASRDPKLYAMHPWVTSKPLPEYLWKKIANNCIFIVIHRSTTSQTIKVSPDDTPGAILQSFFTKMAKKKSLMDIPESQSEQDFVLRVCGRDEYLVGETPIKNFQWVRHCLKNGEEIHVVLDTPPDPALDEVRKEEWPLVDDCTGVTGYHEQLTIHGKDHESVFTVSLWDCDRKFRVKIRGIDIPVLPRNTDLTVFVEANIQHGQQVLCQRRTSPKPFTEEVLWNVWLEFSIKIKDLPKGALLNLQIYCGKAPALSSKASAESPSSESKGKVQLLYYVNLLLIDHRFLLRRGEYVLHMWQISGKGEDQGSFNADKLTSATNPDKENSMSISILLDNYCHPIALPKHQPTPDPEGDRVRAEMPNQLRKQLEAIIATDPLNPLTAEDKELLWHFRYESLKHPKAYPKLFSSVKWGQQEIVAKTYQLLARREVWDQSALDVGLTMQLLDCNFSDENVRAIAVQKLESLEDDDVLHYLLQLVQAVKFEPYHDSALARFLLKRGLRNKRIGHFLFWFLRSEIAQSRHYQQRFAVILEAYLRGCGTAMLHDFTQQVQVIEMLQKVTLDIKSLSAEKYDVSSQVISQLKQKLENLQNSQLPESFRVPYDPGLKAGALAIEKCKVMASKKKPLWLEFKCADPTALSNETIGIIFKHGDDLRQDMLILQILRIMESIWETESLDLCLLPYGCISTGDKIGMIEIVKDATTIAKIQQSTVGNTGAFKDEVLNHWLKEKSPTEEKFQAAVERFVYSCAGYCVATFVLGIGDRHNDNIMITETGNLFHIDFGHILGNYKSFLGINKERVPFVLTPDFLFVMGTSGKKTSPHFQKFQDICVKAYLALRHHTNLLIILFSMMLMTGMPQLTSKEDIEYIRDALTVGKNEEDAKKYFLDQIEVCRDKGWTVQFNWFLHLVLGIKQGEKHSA

Compound: O=c1cc(N2CCOCC2)oc2c(Cc3ccccc3)cccc12 [TGX-90, 2-morpholinyl-8-(phenylmethyl)-4H-1-benzopyran-4-one]
- IC50 (PI3K γ): 3 µM
- IC50 (PI3K α/β isoforms): 0.1 µM
- IC50 [1]: 0.1 µM

Compound: O=c1cc(N2CCOCC2)oc2c(O)cccc12 [TGX-125]
- IC50 [1]: 25 µM

Compound: Cc1ccc(S(=O)(=O)Oc2cccc3c(=O)cc(N4CCOCC4)[nH]c23)cc1 [TGX-138]
- IC50 [1]: 1 µM

Compound: O=c1cc(N2CCOCC2)oc2cc(/C=C/c3ccccc3)ccc12 [TGX-118]
- IC50 [1]: 10 µM

Compound: Cc1cc(NCc2ccncc2)c2nc(N3CCOCC3)cc(=O)n2c1 [TGX-112]
- IC50 [1]: 0.5 µM

Compound: O=c1cc(N2CCOCC2)oc2c(-c3ccccc3C(F)(F)F)cccc12 [TGX-135, 2-morpholinyl-8-(2-trifluoromethylphenyl)-4H-1benzopyran-4-one]
- IC50 [1]: 0.2 µM

Compound: Cc1cc(NCc2ccccc2)c2nc(N3CCOCC3)cc(=O)n2c1 [TGX-126]
- IC50 (PI3K γ): > 10 µM
- IC50 (PI3K α/β isoforms): 0.05 µM
- IC50 [1]: 0.05 µM

Compound: Cc1cc(Nc2ccccc2OCCN(C)C)c2nc(N3CCOCC3)cc(=O)n2c1 [TGX-162]
- IC50 [1]: 2 µM

Compound: O=C(O)c1cccc(Oc2cccc3c(=O)cc(N4CCOCC4)[nH]c23)c1 [TGX-151]
- IC50 [1]: 0.5 µM

Compound: Cc1cccc(Oc2cccc3c(=O)cc(N4CCOCC4)[nH]c23)c1 [TGX-127]
- IC50 (PI3K γ): 5 to 10 µM
- IC50 (PI3K α/β isoforms): 0.05 µM
- IC50 [1]: 0.05 µM

Compound: Cc1cc(Nc2ccncc2)c2nc(N3CCOCC3)cc(=O)n2c1 [TGX-120]
- IC50 [1]: 1 µM

Compound: Cc1cc(-c2ccccc2C(F)(F)F)c2nc(N3CCOCC3)cc(=O)n2c1 [TGX-142]
- IC50 [1]: 2 µM

Compound: Cc1cc(CCc2ccncc2)c2nc(N3CCOCC3)cc(=O)n2c1 [TGX-98]
- IC50 [1]: 1 µM

Compound: Cc1cc(Nc2ccccc2O)c2nc(N3CCOCC3)cc(=O)n2c1 [TGX-130]
- IC50 [1]: 0.2 µM

Compound: O=c1cc(N2CCOCC2)nc2c(Oc3ccccc3)cccn12 [TGX-141, 2-Morpholinyl-8-phenoxy-4H-pyrido[1,2a]pyrimidin-4-one]
- IC50 [1]: 1 µM

Compound: Cc1cc(CNc2ccccc2)c2nc(N3CCOCC3)cc(=O)n2c1 [TGX-183, 6-methyl-8-phenylaminomethyl-2-morpholinyl-4H-pyrido[1,2]pyrimidin-4-one]
- IC50 (PI3K α/β isoforms): 0.05 µM

Compound: O=c1cc(N2CCOCC2)[nH]c2c(Cc3ccccc3)cccc12 [TGX-57, 8-Benzyl-2-morpholinoquinolone]
- IC50 [1]: 2 µM

Compound: Cc1cc(Nc2ccc(Cl)cc2)c2nc(N3CCOCC3)cc(=O)n2c1 [TGX-107]
- IC50 [1]: 1 µM

Compound: Cc1c(OCc2ccccc2)ccc2c(=O)cc(N3CCOCC3)oc12 [TGX-154]
- IC50 [1]: 10 µM

Compound: Cc1cc(NCc2ccc(Cl)cc2)c2nc(N3CCOCC3)cc(=O)n2c1 [TGX-108]
- IC50 [1]: 1 µM

Compound: O=c1cc(N2CCOCC2)oc2c(OCc3cccnc3)cccc12 [TGX-132]
- IC50 [1]: 1 µM

Compound: Cc1cc(-c2ccccc2)c2nc(N3CCOCC3)cc(=O)n2c1 [TGX-41]
- IC50 [1]: ~9.8 µM

Compound: Cc1cccn2c(=O)cc(N3CCOCC3)nc12 [TGX-25]
- IC50 [1]: ~11.1 µM

Compound: Cc1cc(Nc2ccc(F)cc2C)c2nc(N3CCOCC3)cc(=O)n2c1 [TGX-170]
- IC50 [1]: 0.2 µM

Compound: Cc1cc(Nc2ccc(O)cc2C)c2nc(N3CCOCC3)cc(=O)n2c1 [TGX-174]
- IC50 (PI3K γ): 5 µM
- IC50 (PI3K α/β isoforms): 0.1 µM
- IC50 [1]: 0.1 µM

Compound: Cc1ccc(Oc2cc(C)cn3c(=O)cc(N4CCOCC4)nc23)cc1 [TGX-109]
- IC50 [1]: 1 µM

Compound: Cc1cc(Nc2ccc(O)cc2)c2nc(N3CCOCC3)cc(=O)n2c1 [TGX-101]
- IC50 (PI3K γ): 2 µM
- IC50 (PI3K α/β isoforms): 0.1 µM
- IC50 [1]: 0.1 µM

Compound: Cc1cc(-c2ccsc2)c2nc(N3CCOCC3)cc(=O)n2c1 [TGX-93]
- IC50 [1]: 1 µM

Compound: O=c1cc(N2CCOCC2)oc2cc(OCc3cccnc3)ccc12 [TGX-144]
- IC50 [1]: 2 µM

Compound: O=c1cc(N2CCOCC2)nc2c(-c3ccccc3)cccn12 [TGX-37]
- IC50 [1]: ~10.5 µM

Compound: O=c1cc(N2CCOCC2)oc2c(Oc3ccccc3)cccc12 [TGX-134, 2-(4-morpholinyl)-8-phenoxy-4H-1-benzopyran-4-one]
- IC50 (PI3K γ): 0.2 µM
- IC50 (PI3K α/β isoforms): 0.1 µM
- IC50 [1]: 0.1 µM

Compound: O=c1cc(N2CCOCC2)[nH]c2c(Oc3ccc(F)cc3)cccc12 [TGX-121]
- IC50 (PI3K γ): 5 µM
- IC50 (PI3K α/β isoforms): 0.05 µM
- IC50 [1]: 0.05 µM

Compound: O=c1cc(N2CCOCC2)oc2c(OCc3ccccc3)cccc12 [TGX-102]
- IC50 (PI3K γ): 2 µM
- IC50 (PI3K α/β isoforms): 0.1 µM
- IC50 [1]: 0.1 µM

Compound: Cc1cc(Cl)ccc1Oc1cccc2c(=O)cc(N3CCOCC3)[nH]c12 [TGX-180]
- IC50 [1]: 1 µM

Compound: Cc1cc(C2CCN(C)C2=O)c2nc(N3CCOCC3)cc(=O)n2c1 (stereo not drawn) [TGX-153]
- IC50 [1]: 20 µM

Compound: O=c1cc(N2CCOCC2)[nH]c2c(Sc3ccccc3)cccc12 [TGX-111]
- IC50 (PI3K γ): > 10 µM
- IC50 (PI3K α/β isoforms): 0.05 µM
- IC50 [1]: 0.05 µM

Compound: O=c1cc(N2CCOCC2)[nH]c2c(Oc3ccccc3F)cccc12 [TGX-143]
- IC50 (PI3K γ): 2 µM
- IC50 (PI3K α/β isoforms): 0.15 µM
- IC50 [1]: 0.15 µM

Compound: Cc1cc(N[C@@H](C)c2ccccc2)c2nc(N3CCOCC3)cc(=O)n2c1 [TGX-124]
- IC50 [1]: 1 µM

Compound: Cc1c(Oc2ccccc2)ccc2c(=O)cc(N3CCOCC3)oc12 [TGX-159]
- IC50 [1]: 10 µM

Compound: O=c1cc(N2CCOCC2)[nH]c2c(Cc3ccc(F)cc3)cccc12 [TGX-99]
- IC50 [1]: 1 µM

Compound: Cc1cc(NCC2CCNCC2)c2nc(N3CCOCC3)cc(=O)n2c1 [TGX-139]
- IC50 [1]: 1 µM

Compound: Cc1ccccc1-c1cccc2c(=O)cc(N3CCOCC3)oc12 [TGX-145, 2-morpholinyl-8-(2-methylphenyl)-4H-1-benzopyran-4-one]
- IC50 [1]: 2 µM

Compound: Cc1c(Oc2ccccc2)ccc2c(=O)cc(N3CCOCC3)oc12 [TGX-158]
- IC50 [1]: 5 µM

Compound: O=c1cc(N2CCOCC2)oc2c(-c3ccc(F)cc3)cccc12 [TGX-165, 2-morpholinyl-8-(4-fluorophenyl)-4H-1-benzopyran-4-one]
- IC50 [1]: 1 µM

Compound: Cc1cc(Oc2cccc3c(=O)cc(N4CCOCC4)oc23)ccc1F [TGX-173, 8-(4-fluoro-3-methylphenyl)oxy-2-morpholinyl-4H-1-benzopyran-4-one]
- IC50 (PI3K α/β isoforms): 0.15 µM
- IC50 [1]: 0.1 µM

Compound: Cc1c(Oc2ccccc2)ccc2c(=O)cc(N3CCOCC3)oc12 [TGX-160]
- IC50 [1]: 2 µM

Compound: Cc1ccc(Cc2cccc3c(=O)cc(N4CCOCC4)[nH]c23)cc1 [TGX-106]
- IC50 [1]: 2 µM

Compound: Cc1cc(Nc2ccccc2C(F)(F)F)c2nc(N3CCOCC3)cc(=O)n2c1 [TGX-147]
- IC50 [1]: 5 µM

Compound: Cc1cc(Nc2ncccc2C)c2nc(N3CCOCC3)cc(=O)n2c1 [TGX-179]
- IC50 [1]: 10 µM

Compound: O=c1cc(N2CCOCC2)oc2c(-c3ccccc3Cl)cccc12 [TGX-146, 2-morpholinyl-8-(2-chlorophenyl)-4H-1-benzopyran-4-one]
- IC50 [1]: 0.5 µM

Compound: Cc1ccccc1Oc1cccc2c(=O)cc(N3CCOCC3)[nH]c12 [TGX-115, 8-(2′-Methylphenoxy)-2-morpholino-4-quinoline]
- IC50 (PI3K γ): 5 µM
- IC50 (PI3K α/β isoforms): 0.05 µM
- IC50 [1]: 0.05 µM

Compound: COc1ccccc1CNc1cc(C)cn2c(=O)cc(N3CCOCC3)nc12 [TGX-137]
- IC50 (PI3K γ): 5 µM
- IC50 (PI3K α/β isoforms): 0.05 µM
- IC50 [1]: 0.05 µM

Compound: Cc1ccc(Oc2cccc3c(=O)cc(N4CCOCC4)[nH]c23)cc1 [TGX-113]
- IC50 [1]: 0.5 µM

Compound: Cc1cc(NCc2ccccn2)c2nc(N3CCOCC3)cc(=O)n2c1 [TGX-161]
- IC50 [1]: 0.5 µM

Compound: Cc1c(Oc2ccccc2)ccc2c(=O)cc(N3CCOCC3)oc12 [TGX-157]
- IC50 [1]: 5 µM

Compound: COC(=O)c1cccc(Oc2cccc3c(=O)cc(N4CCOCC4)[nH]c23)c1 [TGX-149]
- IC50 [1]: 0.5 µM
